Values of other authors in patent US20250295115A1, “USE OF HERBICIDAL COMPOSITIONS BASED ON L-GLUFOSINATE IN TOLERANT FIELD CROPS” (BASF SE, priority 2017, published 2025).

Tested on: perennial weeds and brush
Settings: as taught by U.S. Pat. No. 4,265,654

CP(=O)(O)CC[C@H](N)C(=O)O (single isomer, unassigned) [L-isomer]
Effectiveness compared with the racemic acid: twice as effective
